Source: the supplement of paper PMC10307832

How the values were obtained:
Assay in all cases: relative viability (nuclei count vs DMSO), 5 days (fraction); higher = more cells survive
Carboplatin + Trametinib = compound: C1CC(C1)(C(=O)O)C(=O)O.[NH2-].[NH2-].[Pt+2] [Carboplatin] + CC(=O)Nc1cccc(-n2c(=O)n(C3CC3)c(=O)c3c(Nc4ccc(I)cc4F)n(C)c(=O)c(C)c32)c1 [Trametinib] (partner 0.02 µM)
Method in brief: (§1)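 Nuclei were stained with Hoechst during a one-step fixation (final 0.05% Triton X-100, 1% formaldehyde, 1 ug/ml Hoechst) carried out 5 days after dosing, then counted on 4× images. The cells, lung cancer lines in 1536-well plates, had been dosed by pin tool the day after seeding with one drug alone or a fixed anchor-drug dose plus five library-drug doses (not always all listed) in √10 steps. Relative viability is the nuclei count in treated wells divided by that in vehicle wells, and each value is the median of duplicate plates.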

GSK126 + Trametinib = compound: CC[C@H](C)N1C=C(C2=C(C=C(C=C21)C3=CN=C(C=C3)N4CCNCC4)C(=O)NCC5=C(C=C(NC5=O)C)C)C [GSK126] + CC(=O)Nc1cccc(-n2c(=O)n(C3CC3)c(=O)c3c(Nc4ccc(I)cc4F)n(C)c(=O)c(C)c32)c1 [Trametinib] (partner 0.02 µM)
Method in brief: as §1

MLN4924 + AZD7762 = compound: NS(=O)(=O)OC[C@@H]1C[C@@H](n2ccc3c(N[C@H]4CCc5ccccc54)ncnc32)C[C@@H]1O [MLN4924] + NC(=O)Nc1cc(-c2cccc(F)c2)sc1C(=O)N[C@H]1CCCNC1 [AZD7762] (partner 0.2 µM)
Method in brief: as §1

MLN4924 + Olaparib = compound: NS(=O)(=O)OC[C@@H]1C[C@@H](n2ccc3c(N[C@H]4CCc5ccccc54)ncnc32)C[C@@H]1O [MLN4924] + O=C(c1cc(Cc2n[nH]c(=O)c3ccccc23)ccc1F)N1CCN(C(=O)C2CC2)CC1 [Olaparib] (partner 8 µM)
Method in brief: as §1

Cell Line	relative viability (Carboplatin + Trametinib; first compound 0.08 µM)	relative viability (Carboplatin + Trametinib; first compound 0.253 µM)	relative viability (Carboplatin + Trametinib; first compound 0.8 µM)	relative viability (Carboplatin + Trametinib; first compound 2.53 µM)	relative viability (Carboplatin + Trametinib; first compound 8 µM)	relative viability (GSK126 + Trametinib; first compound 0.08 µM)	relative viability (GSK126 + Trametinib; first compound 0.253 µM)	relative viability (GSK126 + Trametinib; first compound 0.8 µM)	relative viability (GSK126 + Trametinib; first compound 2.53 µM)	relative viability (GSK126 + Trametinib; first compound 8 µM)	relative viability (MLN4924 + AZD7762; first compound 0.04 µM)	relative viability (MLN4924 + AZD7762; first compound 0.1265 µM)	relative viability (MLN4924 + AZD7762; first compound 0.4 µM)	relative viability (MLN4924 + AZD7762; first compound 1.265 µM)	relative viability (MLN4924 + AZD7762; first compound 4 µM)	relative viability (MLN4924 + Olaparib; first compound 0.04 µM)	relative viability (MLN4924 + Olaparib; first compound 0.1265 µM)	relative viability (MLN4924 + Olaparib; first compound 0.4 µM)	relative viability (MLN4924 + Olaparib; first compound 1.265 µM)	relative viability (MLN4924 + Olaparib; first compound 4 µM)
EKVX	0.324	0.342	0.332	0.359	0.327	0.377	0.446	0.354	0.362	0.268	0.854	0.784	0.674	0.314	0.232	0.801	0.588	0.531	0.206	0.169
EMC-BAC-2	0.899	0.825	0.924	0.832	0.686	0.849	0.832	0.92	0.676	0.859	1.06	0.869	0.377	0.224	0.288	0.397	0.286	0.225	0.214	0.241
EPLC-272H	0.302	0.317	0.334	0.273	0.303	0.353	0.252	0.279	0.312	0.258	0.27	0.239	0.0814	0.133	0.106	0.352	0.176	0.0677	0.0995	0.105
H3255	0.699	0.83	0.754	0.588	0.474	0.685	0.628	0.639	0.546	0.571	0.784	0.797	0.457	0.267	0.33	0.481	0.372	0.297	0.253	0.268
HARA	0.68	0.865	0.917	0.412	0.607	0.755	0.771	0.587	0.613	0.621	0.42	0.328	0.415	0.0749	0.106	0.401	0.413	0.127	0.0734	0.107
HCC-15	0.371	0.399	0.381	0.391	0.371	0.425	0.409	0.386	0.382	0.359	1.13	0.971	0.645	0.0981	0.125	0.318	0.164	0.159	0.106	0.0825
HCC-44	1.14	1.08	1.02	1.1	0.903	1.08	1.04	1.06	1.03	1.06	1.03	0.992	0.824	0.563	0.478	0.882	0.748	0.694	0.538	0.414
HCC-78	0.828	0.587	0.653	0.674	0.73	0.585	0.792	0.653	0.696	0.592	0.665	0.754	0.981	0.265	0.251	0.867	0.967	0.684	0.222	0.22
